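Test compounds were applied to cells in 96-well plates for 48 hours at 5 doses. TGI: total growth inhibition.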
Key:
Assay in all cases: DTP human tumour cell line panel, 48 h
DU-145 prostate = test system: DU-145 prostate
HL-60(TB) leukemia = test system: HL-60(TB) leukemia
HS 578T breast = test system: HS 578T breast
IGROV1 ovarian = test system: IGROV1 ovarian
LOX IMVI melanoma = test system: LOX IMVI melanoma
MALME-3M melanoma = test system: MALME-3M melanoma
MOLT-4 leukemia = test system: MOLT-4 leukemia
NCI-H23 lung = test system: NCI-H23 lung
NCI-H460 lung = test system: NCI-H460 lung
NCI/ADR-RES ovarian = test system: NCI/ADR-RES ovarian
OVCAR-3 ovarian = test system: OVCAR-3 ovarian
OVCAR-5 ovarian = test system: OVCAR-5 ovarian
RPMI-8226 leukemia = test system: RPMI-8226 leukemia
SK-OV-3 ovarian = test system: SK-OV-3 ovarian
T-47D breast = test system: T-47D breast
TK-10 renal = test system: TK-10 renal
UACC-257 melanoma = test system: UACC-257 melanoma

SMILES | TGI (DU-145 prostate) | TGI (HL-60(TB) leukemia) | TGI (HS 578T breast) | TGI (IGROV1 ovarian) | TGI (LOX IMVI melanoma) | TGI (MALME-3M melanoma) | TGI (MOLT-4 leukemia) | TGI (NCI-H23 lung) | TGI (NCI-H460 lung) | TGI (NCI/ADR-RES ovarian) | TGI (OVCAR-3 ovarian) | TGI (OVCAR-5 ovarian) | TGI (RPMI-8226 leukemia) | TGI (SK-OV-3 ovarian) | TGI (T-47D breast) | TGI (TK-10 renal) | TGI (UACC-257 melanoma)
O=C1/C(=C/c2c(Cl)[nH]c3ccccc23)c2ccccc2N1c1ccccc1 | 32.9 µM | 13.9 µM | 30.2 µM | 39.1 µM | 15.6 µM | 18.6 µM | 31.8 µM | 19.3 µM | 14.4 µM | 6.55 µM | 6.26 µM | 81.9 µM | 22.3 µM | 14.2 µM | 16 µM | 39.9 µM | 23.8 µM
COc1cccc(C2SCC(=O)N2c2ccc(-n3c(-c4ccccc4)nc4ccccc4c3=O)cc2)c1OC (configuration not stated) | > 100 µM | > 100 µM | > 100 µM | > 100 µM | > 100 µM | > 100 µM | > 100 µM | > 100 µM | > 100 µM | > 100 µM | > 100 µM | > 100 µM | > 100 µM | > 100 µM | > 100 µM | > 100 µM | > 100 µM
NC(=O)NC(=O)c1cccc(NC(=O)CF)c1 | > 100 µM | > 100 µM | > 100 µM | > 100 µM | > 100 µM | > 100 µM | > 100 µM | > 100 µM | > 100 µM | > 100 µM | > 100 µM | > 100 µM | > 100 µM | > 100 µM | > 100 µM | > 100 µM | > 100 µM
CC(=O)O[C@H]1CCn2c3c(c(C)c21)C(=O)C(N1CC1)=C(C)C3=O | > 10 µM | > 10 µM | > 10 µM | > 10 µM | > 10 µM | > 10 µM | > 10 µM | > 10 µM | > 10 µM | > 10 µM | > 10 µM | > 10 µM | > 10 µM | > 10 µM | > 10 µM | > 10 µM | > 10 µM
c1ccc(C2OCC(OC3CCCCO3)CO2)cc1 (configuration not stated) | > 100 µM | > 100 µM | > 100 µM | > 100 µM | > 100 µM | > 100 µM | 68.2 µM | > 100 µM | > 100 µM | > 100 µM | > 100 µM | > 100 µM | > 100 µM | > 100 µM | > 100 µM | > 100 µM | > 100 µM
COc1cccc2c1C(=O)c1ccc3cc(CCl)cc(O)c3c1C2=O | 1.78 µM | 0.551 µM | 2.32 µM | 1.54 µM | 0.595 µM | 0.515 µM | 2.88 µM | 1.27 µM | 0.768 µM | 1.39 µM | 0.696 µM | 1.71 µM | 1.37 µM | 1.83 µM | 1.73 µM | 0.823 µM | 0.698 µM
CN(CCCN(C)CCc1ccc(Cl)c(Cl)c1)CCCN1CCCC1 | 21.4 µM | 4.12 µM | 4.31 µM | 8.65 µM | 3.54 µM | 3.83 µM | 12.4 µM | 14.3 µM | 5.98 µM | 19.8 µM | 14.8 µM | 15.1 µM | 2.19 µM | 23.1 µM | 5.94 µM | 5.52 µM | 3.46 µM
COC(C)(C)CCc1[nH]c2ccccc2c1CC(=O)NCCc1cncn1C | > 100 µM | > 100 µM | > 100 µM | > 100 µM | > 100 µM | > 100 µM | > 100 µM | > 100 µM | > 100 µM | > 100 µM | > 100 µM | > 100 µM | > 100 µM | > 100 µM | > 100 µM | > 100 µM | > 100 µM
COc1ccc(C2(O)c3ccccc3C(=O)N(C)C2(O)c2ccc(OC)cc2)cc1 (configuration not stated) | > 100 µM | > 100 µM | 29 µM | > 100 µM | > 100 µM | > 100 µM | > 100 µM | > 100 µM | > 100 µM | > 100 µM | > 100 µM | > 100 µM | > 100 µM | > 100 µM | > 100 µM | > 100 µM | > 100 µM
CCOc1ccc(NCC2CC/C(=C\c3ccc(O)cc3)C2=O)cc1 (configuration not stated) | > 59.9 µM | 5.33 µM | 73.7 µM | 33.9 µM | 16.8 µM | 28.5 µM | > 38.4 µM | 50.4 µM | 54.2 µM | 36.9 µM | 25.5 µM | 29 µM | > 25.3 µM | > 58.5 µM | 62.2 µM | 26.2 µM | 30.7 µM
O=C1C(=C(I)I)c2ccccc2-c2ccccc21 | 11.2 µM | > 21.3 µM | 19.6 µM | 17.6 µM | 5.26 µM | 4.08 µM | 6.48 µM | 16.3 µM | 33.9 µM | 12.2 µM | 3.82 µM | 17.1 µM | 3.95 µM | 28 µM | > 100 µM | 3.86 µM | 5.04 µM

From PubChem BioAssay (NCI)
